Consider ten compounds from patent US10000765B2, “Gene encoding cytochrome P450, and use thereof” (NATIONAL INSTITUTE OF AGROBIOLOGICAL SCIENCES, priority 2011, dated 2018).

For data set [1], the system named is non-transformed Arabidopsis thaliana (NT). Briefly: Drug sensitivity test on drug-containing MS medium, non-transformed Arabidopsis thaliana. The format is in vivo. How it is done:
(§1) A bag of mixed salts for Murashige-Skoog (MS) medium (manufactured by Wako Pure Chemical Industries, Ltd.) 20 g of sucrose, 3 mg of thiamin hydrochloride, 5 mg of nicotinic acid, and 0.5 mg of pyridoxine hydrochloride were dissolved in distilled water, and filled up to 1 L with distilled water. After pH adjustment to 5.8 to 6.3 with 1 M KOH, 3 g of Gelrite was added to the solution, and dissolved using a microwave. After that, the mixture was autoclaved to prepare a sterile MS medium. A test drug was added to this sterile MS medium so as to make a final concentration of 1.3, 4.1, 12, 37, 110, or 330 nM. Arabidopsis thaliana from a sterilized seed was seeded in the drug-containing MS medium, and cultivated at 22° C. for 12 to 14 days in a continuous light period.
(§2) Note that the drugs used in this Example were bispyribac-sodium, pyrithiobac-sodium, pyriminobac, bensulfuron-methyl, penoxsulam, pyrazosulfuron-ethyl, amidosulfuron, imazosulfuron, nicosulfuron, and propyrisulfuron.

Data set [2] relates to Arabidopsis thaliana (K31-4-2) transformed with a Kasalath-derived CYP72A31 gene. Kind of data set: Drug sensitivity test on drug-containing MS medium, Arabidopsis thaliana transformed with Kasalath-derived CYP72A31 gene. The format is in vivo. The conditions noted are these: for Rate of emerging of true leaf (%): day 14 after seeding. The method, then: as §1, §2
In data set [3] the test system is Wild-type rice (Nipponbare). Briefly: Drug sensitivity test on gellan gum medium, wild-type rice. As to conditions: plant height compared with drug-free medium. The format is in vivo, Oryza sativa. How it is done: (§3) Next, 1.6 g of Hoagland's mix (Sigma-Aldrich Corporation) and 3 g of Gelrite (Wako Pure Chemical Industries, Ltd.) were suspended in 1 L of distilled water. Then, the mixture was dissolved and heated in a microwave. After that, the mixture was cooled to 50 to 60 degree C., and BS was added at a final concentration of 1 μM. This mixture was dispensed into 30-mL tubular bottles at 15 mL to prepare a gellan gum medium. Next, CSSL rice paddies were soaked in 0.5% sodium hypochlorite for about 20 minutes, and were then washed well with water. These paddies were soaked in distilled water, and kept at 27 degree C. for 3 to 5 days for germination. Germinating seeds were softly planted in sprout-side up on the gellan gum medium. These samples, together with a beaker filled with distilled water, were placed in a transparent case, which was then covered with a clear-plastic wrap. These samples were grown at 27 degree C. under fluorescent light illumination (14 hours of a light period and 10 hours of a dark period) for 7 to 9 days.
(§4) According to the method of Example 1, a gellan gum medium containing a test drug at a concentration of 0.01, 0.1, 1, or 10 μM was prepared. Rice seeds were sterilized, germinated, seeded in the medium, and cultivated.

For data set [4], the system named is CYP72A31-overexpressing rice (K31-4-6-2). Briefly: Drug sensitivity test on gellan gum medium, CYP72A31-overexpressing rice. Type of data set: in vivo, Oryza sativa. The conditions noted are these: for CK ratio (%): plant height compared with drug-free medium. The method, then: as §3, §4
Where [5] appears, read: drug 1.3 nM, day 14 after seeding.
Setting [6] is: drug 4.1 nM, day 14 after seeding.
Where [7] appears, read: drug 12 nM, day 14 after seeding.
Where [8] appears, read: drug 37 nM, day 14 after seeding.
[9] abbreviates: drug 110 nM, day 14 after seeding.
[10] abbreviates: drug 330 nM, day 14 after seeding.
Where [11] appears, read: K31-4-2, Tables 2 and 3, FIGS. 20 to 24.
[12] abbreviates: maximum drug concentration for 80% or more emerging of true leaves, K31-4-2 / NT, day 14.

Consider `COc1cc(OC)nc(NC(=O)NS(=O)(=O)N(C)S(C)(=O)=O)n1` [Amidosulfuron, amidosulfuron], for which the “Rate of emerging of true leaf (%)” value was 100% in data set [1] (setting [5]); 100% in data set [1] (setting [6]); 0% in data set [1] (setting [7]); 0% in data set [1] (setting [8]); 0% in data set [1] (setting [9]); 0% in data set [1] (setting [10]). For the same compound, the Ratio of sensitivity in data set [2] (in vivo) is on record as 3. Further, the “Resistance of transformed Arabidopsis thaliana to the drug” value in data set [2] (in vivo) is on record as “exhibited resistance”.
`COC(=O)c1ccccc1CS(=O)(=O)NC(=O)Nc1nc(OC)cc(OC)n1` [Bensulfuron-methyl, bensulfuron-methyl]: the “Rate of emerging of true leaf (%)” value is given as 30% in data set [1] (setting [5]); 0% in data set [1] (setting [6]); 0% in data set [1] (setting [7]); 0% in data set [1] (setting [8]); 0% in data set [1] (setting [9]); 0% in data set [1] (setting [10]). In addition, in data set [2] (in vivo), the Ratio of sensitivity is given as greater than 28. The “Resistance of transformed Arabidopsis thaliana to the drug” value in data set [2] (in vivo) was “exhibited resistance”.
As for `COc1cc(OC)nc(NC(=O)NS(=O)(=O)c2c(Cl)nc3ccccn23)n1` [Imazosulfuron, imazosulfuron], the “Rate of emerging of true leaf (%)” value was 40% in data set [1] (setting [5]); 10% in data set [1] (setting [6]); 0% in data set [1] (setting [7]); 0% in data set [1] (setting [8]); 0% in data set [1] (setting [9]); 0% in data set [1] (setting [10]). The “Rate of emerging of true leaf (%)” value was determined as 100% in data set [2] (K31-4-2, drug 1.3 nM); 100% in data set [2] (K31-4-2, drug 4.1 nM); 100% in data set [2] (K31-4-2, drug 12 nM); 100% in data set [2] (K31-4-2, drug 37 nM); 90% in data set [2] (K31-4-2, drug 110 nM); 0% in data set [2] (K31-4-2, drug 330 nM). In addition, the “Resistance of transformed Arabidopsis thaliana to the drug” value in data set [2] (setting [11]) is on record as “exhibited resistance”. Also, the Ratio of sensitivity in data set [2] (setting [12]) is reported as greater than 85.
As to `COc1cc(OC)nc(NC(=O)NS(=O)(=O)c2ncccc2C(=O)N(C)C)n1` [Nicosulfuron, nicosulfuron], the “Rate of emerging of true leaf (%)” value in data set [1] (setting [5]) was 100%; in data set [1] (setting [6]), 100%; in data set [1] (setting [7]), 0%; in data set [1] (setting [8]), 0%; in data set [1] (setting [9]) it was 0%; in data set [1] (setting [10]), 0%. The “Rate of emerging of true leaf (%)” value in data set [2] (K31-4-2, drug 1.3 nM) was 100%; in data set [2] (K31-4-2, drug 4.1 nM), 100%; in data set [2] (K31-4-2, drug 12 nM) it was 100%; in data set [2] (K31-4-2, drug 37 nM) it was 100%; in data set [2] (K31-4-2, drug 110 nM) it was 100%; in data set [2] (K31-4-2, drug 330 nM), 10%. Also, in data set [2] (setting [11]), the “Resistance of transformed Arabidopsis thaliana to the drug” value is given as “exhibited resistance”. In data set [2] (setting [12]), the Ratio of sensitivity is 27.
For the compound `COc1cnc(OC)n2nc(NS(=O)(=O)c3c(OCC(F)F)cccc3C(F)(F)F)nc12` [Penoxsulam, penoxsulam], the “Rate of emerging of true leaf (%)” value in data set [1] (setting [5]) was found to be 50%; in data set [1] (setting [6]), 10%; in data set [1] (setting [7]), 0%; in data set [1] (setting [8]), 0%; in data set [1] (setting [9]) it was 0%; in data set [1] (setting [10]), 0%. Also, the Ratio of sensitivity in data set [2] (in vivo) was greater than 254. Moreover, the “Resistance of transformed Arabidopsis thaliana to the drug” value in data set [2] (in vivo) is “exhibited resistance”.
On to `CCc1cc(C)cc(CC)c1-c1c(OC(=O)C(C)(C)C)n2n(c1=O)CCOCC2` [Pinoxaden, pinoxaden], for which the “CK ratio (%)” value turned out to be 59% in data set [3] (drug 0.01 μM); 3% in data set [3] (drug 0.1 μM); 3% in data set [3] (drug 1 μM); 3% in data set [3] (drug 10 μM); 95% in data set [4] (K31-4-6-2, drug 0.01 μM); 48% in data set [4] (K31-4-6-2, drug 0.1 μM). Besides, the “CK ratio (%)” value in data set [4] (K31-4-6-2, drug 1 μM) was determined as 9%; in data set [4] (K31-4-6-2, drug 10 μM) it was 3%. Also, the “Resistance of transformed rice to the drug” value in data set [4] (Table 4 and FIG. 25) was “exhibited resistance”. The Ratio of sensitivity in data set [4] (maximum drug concentration for CK ratio of 40% or more, K31-4-6-2 / wild-type rice) came out at 10.
`CCCc1ccc2nc(Cl)c(S(=O)(=O)NC(=O)Nc3nc(OC)cc(OC)n3)n2n1` [Propyrisulfuron, propyrisulfuron]: the “Rate of emerging of true leaf (%)” value turned out to be 10% in data set [1] (setting [5]); 0% in data set [1] (setting [6]); 0% in data set [1] (setting [7]); 0% in data set [1] (setting [8]); 0% in data set [1] (setting [9]); 0% in data set [1] (setting [10]). In addition, the “Rate of emerging of true leaf (%)” value in data set [2] (K31-4-2, drug 1.3 nM) turned out to be 100%; in data set [2] (K31-4-2, drug 4.1 nM), 100%; in data set [2] (K31-4-2, drug 12 nM) it was 100%; in data set [2] (K31-4-2, drug 37 nM) it was 70%; in data set [2] (K31-4-2, drug 110 nM), 0%; in data set [2] (K31-4-2, drug 330 nM), 0%. Moreover, the “Resistance of transformed Arabidopsis thaliana to the drug” value in data set [2] (setting [11]) is “exhibited resistance”. Further, the Ratio of sensitivity in data set [2] (setting [12]) was greater than 9.
For the compound `CCOC(=O)c1cnn(C)c1S(=O)(=O)NC(=O)Nc1nc(OC)cc(OC)n1` [Pyrazosulfuron-ethyl, pyrazosulfuron-ethyl], the “Rate of emerging of true leaf (%)” value in data set [1] (setting [5]), in data set [1] (setting [6]), in data set [1] (setting [7]), in data set [1] (setting [8]), in data set [1] (setting [9]) and in data set [1] (setting [10]) was 0% throughout. Further, the “Rate of emerging of true leaf (%)” value in data set [2] (K31-4-2, drug 1.3 nM) turned out to be 100%; in data set [2] (K31-4-2, drug 4.1 nM) it was 100%; in data set [2] (K31-4-2, drug 12 nM), 90%; in data set [2] (K31-4-2, drug 37 nM) it was 0%; in data set [2] (K31-4-2, drug 110 nM) it was 0%; in data set [2] (K31-4-2, drug 330 nM), 0%. Moreover, the “Resistance of transformed Arabidopsis thaliana to the drug” value in data set [2] (setting [11]) is on record as “exhibited resistance”. Moreover, in data set [2] (setting [12]), the Ratio of sensitivity is greater than 9.
`CON=C(C)c1cccc(Oc2nc(OC)cc(OC)n2)c1C(=O)O` [Pyriminobac, pyriminobac]: the “Rate of emerging of true leaf (%)” value in data set [1] (setting [5]) is 100%; in data set [1] (setting [6]) it was 90%; in data set [1] (setting [7]) it was 10%; in data set [1] (setting [8]), 0%; in data set [1] (setting [9]), 0%; in data set [1] (setting [10]), 0%. Moreover, the “Rate of emerging of true leaf (%)” value in data set [2] (K31-4-2, drug 1.3 nM) is given as 100%; in data set [2] (K31-4-2, drug 4.1 nM), 100%; in data set [2] (K31-4-2, drug 12 nM) it was 100%; in data set [2] (K31-4-2, drug 37 nM), 100%; in data set [2] (K31-4-2, drug 110 nM), 100%; in data set [2] (K31-4-2, drug 330 nM) it was 50%. For the same compound, the “Resistance of transformed Arabidopsis thaliana to the drug” value in data set [2] (setting [11]) was “exhibited resistance”. The Ratio of sensitivity in data set [2] (setting [12]) amounted to 27.
For the compound `COc1cc(OC)nc(Sc2cccc(Cl)c2C(=O)O)n1` [Pyrithiobac-sodium, pyrithiobac-sodium], the “Rate of emerging of true leaf (%)” value in data set [1] (drug 1.3 nM, day 12 after seeding) is given as 44%; in data set [1] (drug 4.1 nM, day 12 after seeding), 44%; in data set [1] (drug 12 nM, day 12 after seeding), 0%; in data set [1] (drug 37 nM, day 12 after seeding), 0%; in data set [1] (drug 110 nM, day 12 after seeding) it was 0%; in data set [1] (drug 330 nM, day 12 after seeding), 0%. Further, the Ratio of sensitivity in data set [2] (in vivo) was 3. For the same compound, in data set [2] (in vivo), the “Resistance of transformed Arabidopsis thaliana to the drug” value is recorded as “exhibited resistance”.
